In patent publication US20230002355A1 (NANJING SANHOME PHARMACEUTICAL CO., LTD., priority 2019, published 2023):
Like-named read-outs stand apart in the source and are kept apart here.

How the values were obtained:
[1] = tested on: NCI-H358 cells; assay: Cell proliferation inhibition test (CCK-8); format: cell-based; settings: NCI-H358 human non-small cell lung cancer cells, 168 h, read-out: NIH358 cell proliferation inhibition IC50
Protocol: Test compounds: The compounds prepared in examples and comparative example of the present disclosure was tested. Each compound was formulated with DMSO into 20 mM. The concentrations of the compounds acting on NCI-H358 cells were 100 μM, 25 μM, 6.25 μM, 1.56 μM, 0.391 μM, 0.098 μM, 0.024 μM, 0.006 μM, 0.0015 μM, and 0.00038 μM successively.
Human non-small cell lung cancer cells NCI-H358 were purchased from the American Type Culture Collection (ATCC).
Reagents: The CCK-8 proliferation inhibition detection kit was purchased from Jiangsu KeyGEN BioTECH Co., Ltd. The CKX41 inverted microscope was purchased from Olympus, Japan. The multi-mode microplate reader was purchased from Molecular Devices, USA. The cell culture incubator was purchased from Thermo, USA.
Cell recovery: A NCI-H358 cell cryogenic vial was taken out from a liquid nitrogen tank, placed in water bath at 37° C., and shaked gently to allow it to thaw. The thawed cryogenic vial was disinfected with alcohol cotton, and opened to aspirate the cell fluid into a centrifuge tube. To the centrifuge tube, 1 mL of serum-containing complete medium was added and well-mixed. The centrifuge tube was placed into a centrifuge, for centrifugation at 1000 rpm for 5 min. Then the supernatant was discarded, and complete medium was added to completely dissipate and resuspend the cells through repeated pipetting. The cells were seeded in petri dishes at appropriate concentrations and cultured in a CO2 incubator at 37° C., with 5% CO2, 95% humidified air.
Cell passage: After the cells grew to about 80-90% confluence, the original culture medium (1640 culture medium+10% FBS+1% penicillin-streptomycin+1 mM sodium pyruvate) was discarded, and 1 mL of PBS was added to wash away the residual medium and then discarded. 1 mL of trypsin digestion solution was added to digest for 1-2 min. […] The cell suspension was collected by gently pipetting, and centrifuged at 1000 rpm for 5 min. After discarding the supernatant, the cells was resuspended in complete medium, seeded in petri dishes at the required density, and then cultured in a CO2 incubator at 37° C., with 5% CO2, 95% humidified air. Depending on cell growth, the culture medium was changed or passaged every 2-3 days.
After NCI-H358 cell passage, the cells were resuspended in fresh culture medium (1640 culture medium+3% FBS+1% penicillin-streptomycin+1 mM sodium pyruvate), and counted. The cells were seeded into a 96-well culture plate at a density of 1.5×10^4 cells/mL, with each well added 100 μL thereto (ie, 1.5×10^3 cells/well). After 24 h, 100 μL of fresh culture medium containing different drug concentrations (2×) was added to the old culture medium. The final concentrations of the compounds were 100 μM, 25 μM, 6.25 μM, 1.56 μM, 0.391 μM, 0.098 μM, 0.024 μM, 0.006 μM, 0.0015 μM, and 0.00038 μM, with each concentration group set two replicate wells. The cells were […] in the incubator again for 168 h. The culture medium in wells was discarded as thoroughly as possible, and 100 μL of culture medium containing CCK-8 (CCK-8:culture medium=1:10) was added. After a certain time of culture in the incubator, the 96-well plate was taken out of the incubator, and allowed to equilibrate at room temperature for 5 min. The absorbance (OD value) at 450 nm was detected in a multi-mode plate reader, and the cell proliferation inhibition rate was calculated. The calculation formula was Inhibition (%)=100−(ODexperiment well−ODblank well)/(ODsolvent control well−ODblank well)×100. According to different drug concentrations and their corresponding inhibition rates, IC50 curves were plotted using GraghPad 5.0 software, to analyze the data and to obtain final IC50.

[2] = Pharmacokinetic experiment in mice; format: in vivo; settings: mouse, plasma, male BALB/c mice; for bioavailability: I.G. 10 mg/kg vs IV 1 mg/kg, read-out: bioavailability F; for AUC(0-inf) / AUC(0-t) / Cmax / half-life: I.G., 10 mg/kg
Protocol: Compounds: The compounds of the present disclosure prepared in the above examples were tested. The drug vehicle was Captisol/50 mM sodium acetate with pH 4.6 (10%/90%, w/v %). Oral drugs were formulated into a 0.5 mg/mL clear solution. Intravenous drug were formulated into a 0.1 mg/mL clear solution.
Animals: Male BALB/c mice, SPF grade, were purchased from Shanghai SIPPR-Bk Lab Animal Co., Ltd, with a weight of 18-20 g, and adapted for 2-3 days before experiments.
Instrument: API4500-type Triple Quadrupole LC/MS System, from AB, United States, equipped with electrospray ion source (ESI) and dual pumps LC-30AD; SIL-30AC autosampler; CTO-30AC column oven; DGU-20A3R degasser; AnalystQSA01.01 chromatography workstation; Milli-Q ultrapure water device (Millipore Inc); QilinbeierVortex-5 shaker; HITACHI CF16RX II desktop high-speed freezing centrifuge.
(1) There were 3 mice per group. The compounds of the examples of the present disclosure were given by intragastric administration (I.G.) at 10 mg/kg, or the compounds of the examples of the present disclosure were given by intravenous (IV) administration at 1 mg/kg.
(2) At 5 min, 15 min, 30 min, 1 h, 2 h, 6 h, 10 h, and 24 h after the intragastric administration or intravenous administration, blood was collected from the orbital venous plexus in heparinized EP tubes (0.6 ML), and centrifuged at 8000 rpm/min for 5 min. The upper plasma was taken, frozen at −20° C. and analyzed by LC-MS/MS.
(3) Plasma drug concentration-time curves were plotted according to blood drug concentration data obtained from the above-mentioned step. Pharmacokinetic parameters were calculated by using WinNonlin software.

Nc1nc(N2CCC3(CC2)Oc2ccccc2[C@H]3N)cnc1Sc1ccnc(N)c1Cl [Compound A]
IC50 [1]: 18.3 nM
bioavailability ([2]; oral): 51.2%

Cn1c(N2CCC3(CC2)Cc2ccccc2[C@H]3N)nc(N)c(Sc2cccnc2C(F)(F)F)c1=O [Example 1, (S)-6-amino-2-(1-amino-1,3-dihydrospiro[indene-2,4′-piperidin]-1′-yl)-3-methyl-5-((2-(trifluoromethyl)pyridin-3-yl)thio)pyrimidin-4(3H)-one]
IC50 [1]: 1.6 nM

Cn1c(N2CCC3(CC2)Cc2ccccc2[C@H]3N)nc(N)c(Sc2ccc(N)nc2Cl)c1=O [Example 4, (S)-6-amino-2-(1-amino-1,3-dihydrospiro[indene-2,4′-piperidine]-1′-yl)-3-methyl-5-((6-amino-2-chloropyridin-3-yl)thio)pyrimidin-4(3H)-one]
IC50 [1]: 5.6 nM

Cc1ncccc1Sc1c(N)nc(N2CCC3(CC2)Cc2ccccc2[C@H]3N)n(C)c1=O [Example 6, (S)-6-amino-2-(1-amino-1,3-dihydrospiro[indene-2,4′-piperidine]-1′-yl)-3-methyl-5-((2-methylpyridin-3-yl)thio)pyrimidin-4(3H)-one]
IC50 [1]: 2.8 nM

Cn1c(N2CCC3(CC2)Cc2ccccc2[C@H]3N)nc(N)c(Sc2ccnc(N)c2Cl)c1=O [Example 8]
IC50 [1]: 3.3 nM

Cn1c(N2CCC3(CC2)Cc2ccccc2[C@H]3N)nc(N)c(Sc2cccc(C#N)c2Cl)c1=O [Example 9, (S)-3-((4-amino-2-(1-amino-1,3-dihydrospiro[indene-2,4′-piperidine]-1′-yl)-1-methyl-6-oxo-1,6-dihydropyrimidin-5-yl)thio)-2-chlorobenzonitrile]
IC50 [1]: 1.5 nM

Nc1nccc(Sc2cnc(N3CCC4(CC3)Oc3ccccc3[C@H]4N)n3ccnc23)c1Cl [Example 45]
IC50 [1]: 3.9 nM
bioavailability ([2]; po): 78.3%
AUC(0-inf) ([2]; po): 21600 ng·h/mL
AUC(0-t) ([2]; po): 19400 ng·h/mL
Cmax ([2]; po): 1590 ng/mL
half-life ([2]; po): 438 min

Nc1nccc(Sc2cnc(N3CCC4(CC3)Cc3ncccc3[C@H]4N)n3ccnc23)c1Cl [Example 46, (S)-1′-(8-((2-amino-3-chloropyridin-4-yl)thio)imidazo[1,2-c]pyrimidin-5-yl)-5,7-dihydrospiro[cyclopenta[b]pyridine-6,4′-piperidine]-5-amine]
IC50 [1]: 8.5 nM

Nc1nccc(Sc2cnc(N3CCC4(CC3)Oc3ccccc3[C@H]4N)n3ccnc23)c1F [Example 47, (R)-1′-(8-(((2-amino-3-fluoropyridin-4-yl)thio)imidazo[1,2-c]pyrimidin-5-yl)-3H-spiro[benzofuran-2,4′-piperidin]]-3-amine]
IC50 [1]: 16.7 nM

Cc1nc(N2CCC3(CC2)Oc2ccccc2[C@H]3N)n2ccnc2c1-c1cccc(Cl)c1Cl [Example 48, (R)-1′-(8-(2,3-dichlorophenyl)-7-methylimidazo[1,2-c]pyrimidin-5-yl)-3H-spiro[benzofuran-2,4′-piperidine]-3-amine]
IC50 [1]: 12 nM
bioavailability ([2]; po): 81.2%
AUC(0-inf) ([2]; po): 37000 ng·h/mL
AUC(0-t) ([2]; po): 24200 ng·h/mL
Cmax ([2]; po): 1890 ng/mL
half-life ([2]; po): 936 min

COc1cccc(-c2c(C)nc(N3CCC4(CC3)Oc3ccccc3[C@H]4N)n3ccnc23)c1Cl [Example 49, (R)-1′-(8-(2-chloro-3-methoxyphenyl)-7-methylimidazo[1,2-c]pyrimidin-5-yl)-3H-spiro[benzofuran-2,4′-piperidine]-3-amine]
IC50 [1]: 13.3 nM

Cn1c(N2CCC3(CC2)Oc2ccccc2[C@H]3N)nc2n[nH]c(-c3ccnc(NC4CC4)c3Cl)c2c1=O [Example 51]
IC50 [1]: 6 nM

Cn1c(N2CCC3(CC2)Oc2ccccc2[C@H]3N)nc(N)c(Sc2cccnc2C(F)(F)F)c1=O [Example 53, (R)-6-amino-2-(3-amino-3H-spiro[benzofuran-2,4′-piperidine]-1′-yl)-3-methyl-5-((2-(trifluoromethyl)pyridin-3-yl)thio)pyrimidin-4(3H)-one]
IC50 [1]: 4.9 nM
bioavailability ([2]; po): 74.3%
AUC(0-inf) ([2]; po): 7410 ng·h/mL
AUC(0-t) ([2]; po): 6520 ng·h/mL
Cmax ([2]; po): 1390 ng/mL
half-life ([2]; po): 180 min
